In patent publication US20240316164A1, “ENHANCED EXPRESSION OF AN AROMATIC AMINO ACID DECARBOXYLASE (AADC) IN THE SUBSTANTIA NIGRA FOR THE TREATMENT OF PARKINSON'S DISEASE” (Northwestern University, priority 2021, published 2024):
Entries after “also recorded” stand apart in the source; their conditions may differ.

Experiments:
SN dopaminergic neurons = assay: Cytosolic ATP/ADP ratio with PercevalHR in ex vivo brain slice; format: cell-based, mouse; conditions: wildtype dopaminergic neurons, inhibition of mitochondrial complex V
Excerpt: FIG. 1. Loss of Ndufs2 function triggers mitochondrial and genomic adaptations in SN DA Neurons. a, Schematic of a coronal section of the midbrain highlighting the sampled region of SNc (orange). b, Meta-analysis of RNAseq data obtained by Cre-dependent RiboTag mRNA precipitation from P40 wildtype mice. […] Scale bar: 10 μm. e, Representative TMRM fluorescence time series after the application of carboxyatractyloside, the adenine nucleotide transporter inhibitor (iANT). f, Box plots of TMRM after blocking ANT with carboxyatractyloside and depolarizing mitochondria with FCCP (wildtype, P40 n=8 (1 per section), 6 mice; cNdufs2^−/−, P20 n=4 (1 per section), 3 mice; P40 n=5 (1 per section), 4 mice)). g, Cartoon representing the activity of the ETC and ANT following Ndufs2 deletion. h, Electron micrographs of SN DA neurons. The nucleus and the mitochondria are highlighted in green and red, respectively. […] The percentage of abnormal mitochondria was calculated as the ration between the area occupied by abnormal mitochondria over the total area occupied by mitochondria for each cell. […] Scale bar: 15 μm. p, Representative time-lapse measurements of Perceval-HR fluorescence ratio. […]

cNdufs2−/− mice [1] = assay: Gait analysis on treadmill; format: in vivo, mouse
Excerpt: (§1) FIG. 4. cNdufs2^−/− mice manifest a progressive, levodopa-responsive Parkinsonism. a, Schematic diagram of the experimental protocol for Y maze test. […] Local electrical stimulation (350 μA, 2 ms) was used to evoke release. […] By P30, cNdufs2^−/− mice took longer (N=10-13 per group). e, Open-field traces in wildtype and cNdufs2^−/− mice at P30 and P100. f, Number of pauses during open field test in wildtype and cNdufs2^−/− mice. […] N=12-27per group. h-m, Gait analysis procedure and measurement schematics. h, Pictures of wildtype and cNdufs2^−/− mice footprints with representations of measurements of RF (Right Fore). RH (Right Hind). […] Box plots represent stride length in right hind paw at P100 (N=7 per group). m, Boxplots indicate swing duration in right hind paw. […] Kruskal-Wallis test: (b), (d), (f) and (g). ***P<0.001. 2-way ANOVA followed by Tukey's post hoc test (c). *P<0.05; **P<0.01; 1-way ANOVA followed by Tukey's post hoc test (i), (j), (l) and (m). Data are presented as box-and-whisker plots depicting median, quartiles, and range (b), (c), (i), (j), (l) and (m) or median and range (shaded area); (d), (f) and (g).
(§2) FIG. 21. Behavioral phenotypes in cNdufs2^−/− mice. (a) Rearing test performance. b. […] Number of rearings begin to be impaired at P40. […] At P60, cNdufs2^−/− mice show difficulty transitioning between rearing and landing, spending much more time ‘stuck’ in an elevated posture. […] P60 and P100. […] P60 and P100. […] P60 and P100. […] P60 and P100. […] 1. […] P60 and P100. […] P60 and P100. […] P60 and P100. […] Kruskal-Wallis test: (b), and (c). *P<0.05; **P<0.01; 1-way ANOVA followed by Tukey's post hoc test: (h-o). Data are presented as median and range (shaded area).
However, by P100, cNdufs2^−/− mice had splayed hindlimbs, abnormal paw placement and alterations in stride when forced to ambulate on the treadmill (FIG. 4h-m, FIG. 21h-o). […] Because cNdufs2^−/− mice manifest a clear, levodopa-responsive Parkinsonism that is attributable to MCI dysfunction, they are referred to as MCI-Park mice.

cNdufs2−/− mice [2] = assay: Open field test; format: in vivo, mouse
cNdufs2−/− mice [3] = assay: Rearing test; format: in vivo, mouse; conditions: levodopa 3 mg/kg, P20-P120
Excerpt: as §2
By P40, open-field, exploratory behavior of cNdufs2″ mice began to be interrupted by brief pauses, although the total distance traveled in the testing period was normal (FIGS. 4e-g). Later, open-field behavior of cNdufs2^−/− mice became progressively more impaired and total distance traveled began to fall (FIG. 4g). […] Another common exploratory behavior of mice involves rearing. When placed in a tall glass cylinder, mice rear, land and rear again in a different part of the cylinder; in a 3-minute period, mice typically rear and land 15-20 times. At P30, rearing behavior of cNdufs2^−/− mice was normal, but by P60 cNdufs2^−/− mice appeared to have difficulty transitioning between rearing and landing, spending much more time ‘stuck’ in an elevated posture. […]

cNdufs2−/− mice [4] = assay: Adhesive removal test; format: in vivo, mouse; conditions: regardless of age
Excerpt: as §1
By P40, open-field, exploratory behavior of cNdufs2″ mice began to be interrupted by brief pauses, although the total distance traveled in the testing period was normal (FIGS. 4e-g). […]

cNdufs2−/− mice [5] = assay: Y maze associative learning test; format: in vivo, mouse; conditions: systemic levodopa 6 mg/kg, P30
Excerpt: as §1
Unlike conventional PD models in which DA is depleted rapidly throughout the basal ganglia, the staging of pathology in cNdufs2^−/− mice allowed an assessment of how regional deficits in DA release are coupled to behavior. […]

[6] = levodopa 6 mg/kg, P30, P60 and P100

Row | Structure (SMILES) | cytosolic ATP/ADP ratio (ATP levels) (SN dopaminergic neurons) | gait deficits (splayed hindlimbs, abnormal paw placement, alterations in stride) (cNdufs2−/− mice [1]; P100) | swing duration in right hind paw (cNdufs2−/− mice [1]; levodopa 6 mg/kg) | brake duration in right hind paw (cNdufs2−/− mice [1]; [6]) | propulsion time in right hind paw (cNdufs2−/− mice [1]; [6]) | step sequence in right hind paw (cNdufs2−/− mice [1]; [6]) | stride frequency in right hind paw (cNdufs2−/− mice [1]; [6]) | hind limb stance width (cNdufs2−/− mice [1]; levodopa 6 mg/kg, P100) | paw area in right hind paw (cNdufs2−/− mice [1]; levodopa 6 mg/kg, P100) | stance duration in right hind paw (cNdufs2−/− mice [1]; levodopa 6 mg/kg, P100) | number of pauses during open field test (cNdufs2−/− mice [2]; cNdufs2−/− mice, levodopa 3 mg/kg) | open-field performance (pauses, total distance traveled) (cNdufs2−/− mice [2]; cNdufs2−/− mice, levodopa treatment) | open-field ambulation (cNdufs2−/− mice [2]; control MCI-Park mice without AADC, low systemic levodopa dose 1.5 mg/kg, ~P100, 1.5 mg/kg) | number of rearings in a 3-minute period (cNdufs2−/− mice [3]) | rearing time (cNdufs2−/− mice [3]) | adhesive removal speed (cNdufs2−/− mice [4]) | associative learning (memory) task, percentage of correct choices (cNdufs2−/− mice [5])
1 | CC[C@H]1/C=C/C=C/C[C@@H](C)[C@H](O)[C@@](C)(O)C(=O)[C@@H](C)[C@H](O)[C@@H](C)C(=O)[C@@H](C)[C@H](O)[C@@H](C)/C=C/C(=O)O[C@@H]2[C@H](C)[C@H](CC1)O[C@]1(CC[C@H](C)[C@H](C[C@@H](C)O)O1)[C@H]2C [oligomycin] | caused a precipitous drop in ATP levels | – | – | – | – | – | – | – | – | – | – | – | – | – | – | – | –
2 | N[C@@H](Cc1ccc(O)c(O)c1)C(=O)O [levodopa] | – | ameliorated some, but not all of these deficits | not rescued | did not rescue this phenotype | did not rescue this phenotype | did not rescue this phenotype | did not rescue this phenotype | rescued this phenotype | rescued this phenotype at P100 | rescued this phenotype at P100 | rescued this deficit | improved performance in this task | had no discernible effect | did not rescue this deficit | did not lessen this deficit; also recorded: did not rescue this deficit | improved adhesive removal speed regardless of age | restored
